Broadly, the HC50 is the concentration that lyses half of the red blood cells. Higher therefore signals less damage to red cells.

For data set [1], the system named is HuTu 80 cells. The data set is described as follows: Mitochondrial membrane potential, JC-10 flow cytometry. It is filed as cell-based, human. The note with it: HuTu 80, 48-h treatment. On the procedure: The cells are prepared as in the Cell Apoptosis Assay section. Cells were detached with trypsin/versene solution (1:3), suspended in PBS, collected at 2000 rpm for 5 min, then washed twice with ice-cold PBS, followed by resuspension in JC-10 (10 μg/mL) and incubation at 37 °C for 10 min. The cells were then washed three times and suspended in PBS, and JC-10 fluorescence was observed by flow cytometry (Guava Easy Cyte).
Most forms of apoptosis in mammals are realized not through cell death receptors but through the mitochondrial pathway. In this case, the outer membrane of the mitochondria breaks, and soluble proteins of the intermembrane space enter the cytoplasm. The permeability of the outer membrane of mitochondria is a finely regulated process, and its increase is a key event in triggering apoptosis. Induction of apoptosis by compounds 4b, 5b, 6a, and 8 at concentrations of IC50/2 and IC50 via the mitochondrial pathway on the HuTu 80 cell line was studied by flow cytometry using the fluorescent dye JC-10 from the Mitochondria Membrane Potential Kit.
A general note: A flow cytometer gives signals particle by particle.

The subject of data set [2] is HuTu 80 cells. The data set is described as follows: Intracellular ROS, CellROX Deep Red flow cytometry. It is filed as cell-based, human. The note with it: HuTu 80, IC50/2 and IC50, compared with the control. The protocol:
ROS generation was investigated using a flow cytometry assay and the CellROX® Deep Red flow cytometry kit. For this, HuTu 80 cells were harvested at 2000 rpm for 5 min and then washed twice with ice-cold PBS, followed by resuspension in 0.1 mL of medium without FBS, to which was added 0.2 μL of CellROX® Deep Red and incubated at 37 °C for 30 min. After three washes, cells were suspended in PBS, and the cell production of ROS was immediately monitored using a flow cytometer (Guava easy Cyte).

In another data set the test system is caspase 9. The data set is described as follows: Caspase 9 ELISA in cell lysates. The note with it: HuTu 80 lysates, IC50/2 and IC50, compared with the control. The format is cell-based, human. On the procedure:
In vitro quantitative measurement of caspase-9 and caspase-8 was performed using ELISA kits (ELISA Kit for Caspase 9 and ELISA Kit for Caspase 8, Human Cloud-Clone Corp., Wuhan, China). The analysis was carried out according to the manufacturer’s instructions. Samples were standardized for total protein content (1 mg/mL). Protein concentration was determined with Coomassie-based assays using Bredford Dye Reagent (Bio-Rad, Hercules, CA, USA). The absorbance was measured using a microplate reader, EPOCH (BioTek Instruments, Inc., Winooski, VT, USA), at a wavelength of 450 ± 10 nm. Lysates of untreated HuTu 80 cells were used as controls.
To confirm that apoptosis induced by compounds 4b, 5b, 6a, and 8 proceeds along the internal (mitochondrial) pathway, studies were conducted to determine the enzymatic activity of the early apoptosis key markers—caspase 9 and caspase 8 using ELISA kits. The kits are sandwich enzyme immunoassays for in vitro quantitative measurement of Caspase 8 and Caspase 9 in cell lysates, rat tissue homogenates, and other biological fluids. Caspase 9 plays a key role in the mitochondrial signaling pathway of apoptosis induction. The activation of caspase 8 characterizes the external (receptor-dependent) pathway of apoptosis. HuTu 80 cells not treated with the tested compounds were used as a control.
Background: In an ELISA, binding on a coated surface is turned into a signal by an enzyme label.

Data set [3] can be described thus: In vivo acute toxicity, single intraperitoneal injection. Further details: species or system mice. The note with it: male, CD-1, mouse, in vivo, ip, male CD-1 mice, single intraperitoneal administration, 14 days, Probit analysis. On the procedure: (§1) The study of acute toxicity was performed on males of outbred white mice of the CD-1 line at the age of 2–3 months, weighing 20–30 g. The total number of mice participating in the experiment was 300. Mice were obtained from the Research and Production Enterprise Laboratory Animal Farm based at the Branch of Shemyakin and Ovchinnikov Institute of Bioorganic Chemistry of the Russian Academy of Sciences (Pushchino, Russia). The animals were kept in accordance with in standard conditions in a vivarium with 12 h of daylight and free access to food and water. The animals were fed complete feed made according to specifications (protein 22%, fiber 4% max., fat 5% max, ash 9% max, humidity 13.5% max, caloric value 295 kcal/100 g). The studies were conducted with a single parenteral–intraperitoneal (intra-peritoneal) injection, according to the method.
(§2) The substances were introduced in a sterile saline DMSO (40% vol.) solution. Solutions of the substances were prepared immediately before administration. The total volume of the injected liquid was 0.1 mL/10 g of animal weight. As a control, a group of mice was administered under similar conditions an equivalent amount (0.1 mL/10 g, or 10 mL/kg) of a solvent—40% DMSO on sterile saline solution. The substances were administered in doses ranging from 1 to 100 mg/kg; there were six animals in each group. To assess acute toxicity, the animals were monitored 14 days after administration of the substance, assessing their general condition and recording deaths.
(§3) The study of the acute toxicity parameters of six aminophosphonium salts 4a, 4b, 4d, 5a, 5b, and 6b was performed on male outbreed white mice of the CD-1 line. Acute toxicity was determined with a single parenteral (intraperitoneal) administration in sterile saline/DMSO (40% vol.) solution at doses from 1 to 100 mg/kg. To assess acute toxicity, the animals were monitored for 14 days after the introduction of substances, assessing their general condition and recording deaths. Next, lethal doses LD50, LD0, LD16, LD84, and LD100 were calculated using the Probit analysis method. LD0, LD16, LD84, and LD100 are given in Supplementary Material (Table S1).

The next data set relates to mice of the CD-1 line. Described as above. The note with it: for onset of animal death after administration: doses of LD100; for acute toxicity class: according to the classification [105], parenteral administration. The protocol: as §1, §2, §3
The subject of data set [4] is human volunteer donor erythrocytes. Briefly: Hemolytic assay. It is filed as cell-based. The note with it: hemolysis in 50% of human erythrocytes, 1 h, 37 °C. On the procedure:
The hemolytic activity of Aminophosphonium Salts was assessed by comparing the optical density of a solution containing the test compound with the optical density of blood at 100% hemolysis. Healthy human volunteer donor erythrocytes were used as the object of the study. Red blood cells with EDTA (1.8 mg/mL) were washed three times with saline (0.9% NaCl), centrifuged for 10 min at 800× g rpm, and resuspended in saline (0.9% NaCl) to a concentration of 10%. The tested concentrations (0.1–100 μM) were prepared in physiological solution (0.9% NaCl) (with the addition of 5% DMSO). Compounds at the appropriate dilution (450 μL) were added to 50 μL of a 10% red blood cell suspension. Samples were incubated for 1 h at 37 °C and centrifuged for 10 min at 2000 rpm. The release of hemoglobin was controlled by measuring the optical density of the supernatant on an InvitroLogic microplate reader at λ = 540 nm. A control sample corresponding to zero hemolysis (blank experiment) was prepared by adding 50 μL of a 10% red blood cell suspension to 450 μL of saline (0.9% NaCl). A control sample corresponding to 100% hemolysis was prepared by adding 50 μL of a 10% red blood cell suspension to 450 μL of distilled water. Blood was taken at the Clinic of the Federal Research Center “Kazan Scientific Center of the Russian Academy of Sciences” from healthy donors with their personal consent.

Take `CCCCCCCC[P+](c1ccccc1)(c1ccccc1)c1ccccc1` [compound 8, Octyltriphenylphosphonium iodide, reference compound]: the “effect on mitochondrial membrane potential (in words)” value (“effect” for short) in the data set on HuTu 80 cells [1] is “decrease in the mitochondrial membrane potential”. In the data set on HuTu 80 cells [2], the “ROS production, CellROX Deep Red fluorescence (in words)” value (“ROS production” for short) is “increase in the fluorescence intensity”. The “concentration of caspase 9 (in words)” value in the data set with caspase 9 is reported as “significantly increased”.

On to `CCCCCCCC[P+](N(CC)CC)(N(CC)CC)N(CC)CC` [4b, Tris(diethylamino)(octyl)phosphonium iodide], for which the LD50 at 14 days in data set [3] is 43.4 mg/kg. Moreover, the “onset of animal death after administration” value (“onset of animal death” below) in the data set with mice of the CD-1 line (CD-1 mice, i.p.) lay within 1 to 2 h. Also, in the data set with mice of the CD-1 line, the acute toxicity class entry is reported as “moderately toxic”. For the same molecule, the “effect” value in the data set with HuTu 80 cells [1] is on record as “decrease in the mitochondrial membrane potential”. In addition, the “ROS production” value in the data set on HuTu 80 cells [2] is given as “increase in the fluorescence intensity”. Also, the HC50 in data set [4] is over 100 µM. For the same molecule, the “concentration of caspase 9 (in words)” value in the data set on caspase 9 was “significantly increased”.

As to `CCCCCC[P+](c1ccccc1)(c1ccccc1)N(CC)CC` [6a, (Diethylamino)(hexyl)diphenylphosphonium iodide], in the data set on HuTu 80 cells [1], the “effect” value is on record as “decrease in the mitochondrial membrane potential”. For the same molecule, the “ROS production” value with HuTu 80 cells [2] is recorded as “increase in the fluorescence intensity”. For the same molecule, the HC50 in data set [4] was over 100 µM. The “concentration of caspase 9 (in words)” value with caspase 9 was “significantly increased”.

In turn, `CCCCCCCC[P+](c1ccccc1)(c1ccccc1)N(CC)CC` [6b, (Diethylamino)(octyl)diphenylphosphonium iodide] had an LD50 at 14 days in data set [3] of 102 mg/kg. The same molecule yielded a death in animals in the data set on mice of the CD-1 line (CD-1 mice, i.p., dose of 150 mg/kg) of 100%. The molecule also registered a time to death with mice of the CD-1 line (CD-1 mice, i.p., doses of 200 and 400 mg/kg) of at most 10 min. Moreover, the acute toxicity class result in the data set on mice of the CD-1 line is “moderately toxic”. In data set [4], this molecule returned an HC50 of over 100 µM.

With `CCCCCCCC[P+](c1ccccc1)(N(CC)CC)N(CC)CC` [5b, Bis(diethylamino)(octyl)(phenyl)phosphonium iodide], the LD50 at 14 days in data set [3] worked out at 27.9 mg/kg. Besides, in the data set with mice of the CD-1 line (CD-1 mice, i.p.), the “onset of animal death” value is 1 to 2 h. Moreover, in the data set on mice of the CD-1 line, the acute toxicity class result is on record as “moderately toxic”. Moreover, in the data set with HuTu 80 cells [1], the “effect” value is “decrease in the mitochondrial membrane potential”. In addition, the “ROS production” value in the data set on HuTu 80 cells [2] is “increase in the fluorescence intensity”. Besides, the HC50 in data set [4] was over 100 µM. Further, in the data set with caspase 9, the “concentration of caspase 9 (in words)” value is “significantly increased”.

In the case of `CCCCCCCCCC[P+](N(CC)CC)(N(CC)CC)N(CC)CC` [4d, Decyltris(diethylamino)phosphonium iodide], the LD50 at 14 days in data set [3] is 6.9 mg/kg. In addition, the “onset of animal death” value in the data set on mice of the CD-1 line (CD-1 mice, i.p.) fell in the range of 1 to 2 h. Moreover, the acute toxicity class entry in the data set on mice of the CD-1 line was “highly toxic”. In addition, the LD50 in the data set on mice of the CD-1 line (male CD-1 mice, single intraperitoneal administration, 14 days, Probit analysis) is 5.9 (3.7÷7.6) mg/kg.

The values are drawn from article PMC10649961, “Novel Mitochondria-Targeted Amphiphilic Aminophosphonium Salts and Lipids Nanoparticles: Synthesis, Antitumor Activity and Toxicity” (Nanomaterials, 2023).
